Measured values as given in patent publication US6346603B1, “Crystal of depsipeptide derivative and process for producing the same” (Fujisawa Pharmaceutical Co., Ltd., priority 1997, dated 2002).

Key:
Assay type in all cases: physicochemical
[1] = Water content after standing at ambient temperature to constant weight; conditions: left to stand at ambient temperature until weight reached constant value
Method: (§1) The crystals (I), (II) and (III) of the depsipeptide derivative (IV), thus recovered in the aforementioned manners, were examined about the filtration properties during crystallization, the specific volume and water content, by using the prior art crystal (V) for comparison.
As to the water content, additionally, each crystal was left to stand at ambient temperature until its weight reached constant value, wherein an amount of water containing in the crystal was measured in %.

[2] = Filtration properties during crystallization, observed with the naked eye; parameters: key: ⊚: very great filtration properties; ◯: good filtration properties; Δ: poor filtration properties; X: very poor filtration properties; conditions: observation with the naked eye
Method: as §1
The filtration properties during crystallization were evaluated on the following standards under observation with the naked eye.
⊚: very great filtration properties
◯: good filtration properties
Δ: poor filtration properties
X: very poor filtration properties

[3] = Fluidity (adhesion properties) of the crystal; conditions: not shown in Table 6; adhesion to machines during production

SMILES	Water content [1]	Filtration property during crystallization [2]	Fluidity (adhesion properties) [3]
CC(C)CC1C(=O)OC(Cc2ccc(N3CCOCC3)cc2)C(=O)N(C)C(CC(C)C)C(=O)OC(C)C(=O)CCCCN1C (stereo not shown) [Crystal (I)]	3.16%	×	–
CC(C)CC1C(=O)OC(Cc2ccc(N3CCOCC3)cc2)C(=O)N(C)C(CC(C)C)C(=O)OC(C)C(=O)CCCCN1C (stereo not shown) [Crystal (II)]	0.98%	⊚	great fluidity
CC(C)CC1C(=O)OC(Cc2ccc(N3CCOCC3)cc2)C(=O)N(C)C(CC(C)C)C(=O)OC(C)C(=O)CCCCN1C (stereo not shown) [Crystal (III)]	0.20%	◯	–
CC(C)CC1C(=O)OC(Cc2ccc(N3CCOCC3)cc2)C(=O)N(C)C(CC(C)C)C(=O)OC(C)C(=O)CCCCN1C (stereo not shown) [Prior art Crystal (V), reference compound]	2.45%	×	poor fluidity
